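Interpolation was linear, between the two tested concentrations surrounding the appropriate level; five concentrations were tested over 48 hours in 96-well plates. GI50 marks 50% less growth.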 Calls of active or inactive are those of the source. Rule as the data show it: active = GI50 up to about 1.1 µM and inactive = higher.
Legend:
Experiment in all cases: NCI anticancer screen, dose series, 48 h
[1] = tested on: DMS-273
[2] = tested on: XF498
[3] = tested on: DMS-114
[4] = tested on: DLD-1
[5] = tested on: KM-20L2
[6] = tested on: HOP-18
[7] = tested on: SNB-78
[8] = tested on: LXFL 529
[9] = tested on: RXF 631

Measured: GI50

CNC(=O)ON(C(C)=O)C(=O)NC [CARACEMIDE]
inactive: [1] 75.2 µM | [2] 41.3 µM | [3] 31.1 µM | [4] 95.1 µM | [5] 104 µM | [6] 97.7 µM | [7] 133 µM

CC1=Nc2c(O)nc(S)nc2NC(c2c(Cl)cccc2Cl)C1 (stereo unspecified)
inactive: [8] 2.96 µM | [1] 1.95 µM | [2] 3.1 µM | [9] 5.75 µM | [3] 3.05 µM | [4] 2.42 µM | [5] 4.23 µM | [6] 15.2 µM | [7] 4.43 µM

CN(C)CCCCC1CCN(CC(=O)N2c3ccccc3NC(=O)c3ccccc32)CC1
inactive: [8] > 100 µM | [1] > 100 µM | [2] > 100 µM | [9] > 100 µM | [3] > 100 µM | [4] > 100 µM | [7] > 100 µM

O=C(OC1CCC2OOC1O2)c1ccc([N+](=O)[O-])cc1 (stereo unspecified)
inactive: [1] > 100 µM | [3] > 100 µM | [5] > 100 µM | [7] > 100 µM

CCCN1C(=O)C/C(=C\C(C)=O)Nc2ccccc21
inactive: [8] > 100 µM | [1] > 100 µM | [2] > 100 µM | [3] 71.4 µM | [4] > 100 µM | [7] 80.2 µM

C[n+]1c2ccccc2c(/C=N\NS(=O)(=O)c2ccc(O)c(C(=O)O)c2)c2ccccc21
inactive: [1] 35.6 µM | [2] 14.9 µM | [9] 31.6 µM | [3] 34 µM | [4] 58.7 µM | [5] 53.6 µM | [7] > 100 µM

N#C/N=C1\NCCC(=O)N1CCc1c[nH]c2ccccc12
inactive: [8] > 100 µM | [1] > 100 µM | [2] > 100 µM | [3] > 100 µM | [4] > 100 µM | [7] > 100 µM

ClCCCCOC1CCCCO1 (stereo unspecified)
inactive: [8] > 100 µM | [1] > 100 µM | [2] > 100 µM | [3] > 100 µM | [4] > 100 µM | [5] > 100 µM | [6] > 100 µM | [7] > 100 µM

O=C(c1ccccc1)c1c(-c2ccccc2)sc2nc3ccccc3nc12
inactive: [1] > 100 µM | [2] > 100 µM | [3] > 100 µM | [5] > 100 µM | [7] 74 µM

Cc1cc([N+](=O)[O-])ccc1Nc1cccc(Cl)c1C
inactive: [8] 14.4 µM | [1] 14.6 µM | [9] 16.2 µM | [3] 13.5 µM | [4] 14.6 µM | [5] 14 µM | [6] 14 µM

O=c1cccccc1NCCCCCCCCNc1cccccc1=O
inactive: [8] 47.9 µM | [1] 55.7 µM | [2] 23 µM | [9] 1.74 µM | [3] 1.77 µM | [4] > 100 µM | [5] > 100 µM | [7] > 100 µM

O=c1cc2ccccc2nn1-c1ccccc1Cl
inactive: [1] 78.5 µM | [2] 27 µM | [3] 48.3 µM | [4] > 100 µM | [5] > 100 µM | [6] > 100 µM | [7] > 100 µM

CCC(/C=C/c1ccccc1)=N\N=C(\C=C\c1ccccc1)CC
inactive: [8] > 100 µM | [1] > 100 µM | [2] > 100 µM | [4] > 100 µM | [5] > 100 µM | [7] > 100 µM

O=C1/C(=N\O)S(=O)(=O)c2ccccc21
inactive: [8] > 100 µM | [1] > 100 µM | [9] > 100 µM | [3] > 100 µM | [4] > 100 µM | [5] 59.2 µM | [6] > 100 µM | [7] > 100 µM

COc1ccccc1/C=C(\C#N)c1ccccc1
inactive: [8] 36.1 µM | [1] 16.8 µM | [3] 16.5 µM | [4] 28.1 µM | [5] 23.6 µM | [6] 38.5 µM | [7] 31.2 µM

O=C(c1ccccc1)c1oc2ccc(Br)cc2c1-c1cnn(-c2ccccc2)c1
inactive: [8] > 100 µM | [1] > 100 µM | [2] > 100 µM | [3] > 100 µM | [4] > 100 µM | [5] > 100 µM | [7] > 100 µM

N=S(=O)(c1ccccc1)c1ccccc1[N+](=O)[O-] (stereo unspecified)
inactive: [8] > 100 µM | [1] > 100 µM | [2] > 100 µM | [9] > 100 µM | [4] > 100 µM | [5] > 100 µM | [6] > 100 µM | [7] > 100 µM

O=S(=O)(c1ccccc1)n1cnc(CCc2ccccc2)n1
inactive: [8] > 100 µM | [1] > 100 µM | [3] > 100 µM | [4] > 100 µM | [5] > 100 µM | [6] > 100 µM | [7] > 100 µM

CCOC(=O)C(=Cc1cccnc1C)C(=O)OCC
inactive: [8] 7.57 µM | [1] 3.82 µM | [2] 12.6 µM | [9] 11.9 µM | [3] 13.7 µM | [4] 9.27 µM | [5] 3.6 µM | [6] 9.68 µM

COC1=CC(=O)c2c(cc3c(c2O)-c2c(OC)cc4cc5c(c(O)c4c2OC(=O)CC(C)(O)C3)C(=O)CC(C)(O)C5)C1=O (stereo unspecified)
inactive: [8] 1.16 µM | [1] 1.64 µM | [2] 1.37 µM | [3] 1.69 µM | [4] 2.63 µM | [5] 1.63 µM | [6] 1.3 µM | [7] 1.85 µM

O=C1c2ccccc2-c2cccc3ccc(Cc4ccccc4)c1c23
inactive: [8] > 100 µM | [1] > 100 µM | [2] > 100 µM | [9] > 100 µM | [3] > 100 µM | [4] > 100 µM | [5] > 100 µM | [7] > 100 µM

COC(=O)C(=O)C(C#N)c1c(Cl)cccc1Cl (stereo unspecified)
inactive: [8] > 100 µM | [1] > 100 µM | [2] > 100 µM | [9] > 100 µM | [3] > 100 µM | [4] > 100 µM | [5] > 100 µM | [7] > 100 µM

CN(C)CCCNc1ccnc2c([N+](=O)[O-])cccc12
inactive: [1] 14.7 µM | [2] 14.8 µM | [3] 2.48 µM | [5] 4.36 µM | [7] 31.2 µM

Reference: ChEMBL document CHEMBL1201862, “PubChem BioAssay data set” (2004)
